# Like-named read-outs stand apart in the source and are kept apart here. Positions of bridges follow the written chain, without caps; N, C: chain ends. Residues, ends and D or L forms follow the SMILES beside them. No end group written: not given here.
# Experiments:
# [1] = system: antiserum directed against peptide III; test: Competitive radioimmunoassay with 125I-peptide III; type: binding, rabbit; details: for Relative Inhibitory Activity: half-maximal inhibitory concentration relative to peptide III, standard RIA; for effectiveness as inhibitor of precipitation of 125I-peptide III: relative to peptide III
# Protocol: Reactants were mixed in a final volume of 50 microliters of a solution containing: 20 mM sodium phosphate, at pH 7.4; 200 mM NaCl; 40 mM dithiothreitol; 0.1% (w:v) BSA; 0.1% (w:v) NaN3; ^125 I-peptide III; (10^4 cpm); antiserum at a final dilution of 1/15,000; and other additions, as specified. The reaction was initiated by the addition of antiserum and continued at 23° C. for 90 minutes. An equal volume of 10% formalin-fixed Staphalococcus A (Pansorbin, Calbiochem) was then added and incubation was continued for an additional 30 minutes at 23° C. The immunoadsorbant was removed by sedimentation through a cushion of 10% (w:v) sucrose and the amount of bound ^125 I-peptide III was determined using a gamma counter.
# [2] = biological target: T1, EGF receptors on A-431 human epidermoid carcinoma cells (Homo sapiens, UniProt P00533); test: [125I]EGF radioreceptor assay on A-431 cells; type: binding
# T1 construct: Human epidermoid carcinoma A431 cells have in excess of 10^6 EGF receptors per cell; endogenous in cells; host or cells: A431 human epidermoid carcinoma cells
# Protocol: A-431 human epidermoid carcinoma cells or human foreskin fibroblasts (HFF), established from primary cultures, were grown to confluence in 24-well cluster dishes (Costar) in Dulbecco's minimal essential medium (DMEM, Gibco) containing 10% fetal calf serum (FCS, Hyclone). EGF was radio-iodinated as above to between 4×10^4 and 8×10^4 cpm/ng protein. Cells were incubated at 4° C. for 60 minutes with 1 nM [^125 I]EGF in the presence of inhibitor peptides in DMEM (pH 7.4; 20 mM Hepes) containing 0.1% BSA. Cells were washed 3× with cold buffer, lysed with 0.1N NaOH, and cell-associated radioactivity was measured (γ-counter). Nonspecific binding assessed in the presence of a 100x excess of cold EGF was less than 5% and 10% of the specific binding for A-431 and HFF cells, respectively.
# [3] = system: BSC-1 cells infected with vaccinia virus; type: cell-based, Cercopithecus monkey; details: AraC from after the 1 hr adsorption period; 13 and 24 hr post infection
# [4] = system: anti-KLH-peptide 1 IgG; test: Solid phase RIA, anti-KLH-peptide 1 IgG on BSA-peptide 1 conjugate; type: binding, rabbit
# Protocol: (1979) J. Immunol. Methods 28, pp. 201-206). Carrier-peptide complexes were purified by gel filtration. […] Rabbits were boosted s.c. every two weeks with the immunogen in incomplete Freund's adjuvant. The IgG fraction of the antiserum after 5 boosts was used for immunoassays and radiolabeled using Na^125 I (NEN) and Enzymobeads (Bio-Rad) to 4×10^5 cpm/μg protein. […] Plates were incubated for 4 hours at 37° C. with [^125 I]anti-KLH-peptide 1 IgG (50,000 cpm/well) in the presence or absence of inhibitors, washed and individual wells were counted.
# [5] = system: quiescent HFF; test: Cell proliferation assay, [3H]methyl-thymidine incorporation; type: cell-based, human
# Protocol: HFF cells were grown to confluence in 48-well cluster dishes in DMEM-10% FCS and brought to quiescence by starvation for 2 days in DMEM-0.5% FCS. Mitogens and peptides were incubated with cells at 37° C. for 18 hours prior to a 4 hour pulse with 1 μCi [^3 H]methyl-thymidine (NEN) and trichloroacetic acid precipitable radioactivity was determined.
# [6] = biological target: T2, EGF receptors on A431 cells (Homo sapiens, UniProt P00533); test: Binding of 125I-labeled rat TGF to A431 cells
# T2 construct: Human epidermoid carcinoma A431 cells have in excess of 10^6 EGF receptors per cell; endogenous in cells; host or cells: A431 human epidermoid carcinoma cells
# Protocol: was synthesized using the solid-phase technique of Ohgak et al. (1983) Journal of Immunol. Meth. 57, pp. 171-184. This oligopeptide was then coupled to keyhole limpet hemocyanin in accordance with the procedure of Baron et al. (1982) Cell 28, pp. 395-404, and used to immunize rabbits (Baron et al. (1982) Cell 28, pp. 395-404) and sheep (Lerner (1982) Nature 299, pp. 592-596). Antisera were assayed against peptide by a peroxidase-linked immunoassay (Kirkegaard and Perry Laboratories, Gaithersberg, Md.) and against homogeneous rat TGF (purified according to Example II above), by immunoprecipitation (Bister et al. (1980) J. Virol. 36, pp. 617-621) and Western blotting techniques (Burnett (1981) Analyt. Biochem. 112, pp. 195-203). Binding of ^125 I-labeled rat TGF and mouse EGF (Bethesda Research Labs, Bethesda, Md.) to A431 cells grown in 96-well microtiter plates was as described in Pross et al. (1977) Proc. Natl. Acad. Sci. USA 74, pp. 3918-3921.
# Human epidermoid carcinoma A431 cells have in excess of 10^6 EGF receptors per cell (Fabricant et al. (1977) Proc. Natl. Acad. Sci. USA 74, pp. 565-569). TGF competes with EGF for binding to these receptors. Binding of ^125 I-labeled rat TGF to these cells was blocked by an excess of unlabeled EGF and by antiserum to peptide. […]
compound,measurement,setting,value
CHSGYVGVRC (cysteine pairing not given here) [Peptide II],Relative Inhibitory Activity,[1],> 1500
"Ac-Cys-His-Ser-Gly-Tyr-Val-Gly-Ala-Arg-Cys-OMe (Ac-CHSGYVGARC-OMe; disulfide 1-10 (inferred)) [Peptide 3, methyl ester of the corresponding loop of hTGF]",binding potency relative to EGF or TGF-α,[2],~0.2%
"Nc1ccn([C@@H]2O[C@H](CO)[C@@H](O)[C@@H]2O)c(=O)n1 [AraC, cytosine arabinoside]",VGF production relative to infected control cultures,[3],enhanced more than two-fold
CC(C)[C@@H]1NC(=O)CNC(=O)[C@H](C(C)C)NC(=O)[C@H](Cc2ccc(O)cc2)NC(=O)CNC(=O)[C@H](CO)NC(=O)[C@H](Cc2c[nH]cn2)NC(=O)[C@@H](N)CSSC[C@@H](C(=O)O)NC(=O)[C@H](CCCNC(=N)N)NC1=O [Peptide 1] (H-CHSGYVGVRC-OH; disulfide 1-10),inhibition of reaction of anti-KLH-peptide 1 antibodies with BSA-TGF peptide,[4],inhibited in a concentration-dependent fashion
same,IC50,"[5]; induced by 1 nM of EGF, read-out: Inhibition of Mitogenesis IC50 (M) EGF",> 1e-05 M
same,IC50,"[5]; induced by 1 nM of TGFα, read-out: Inhibition of Mitogenesis IC50 (M) TGFα",> 1e-05 M
same,concentration giving partial inhibition of [125I]EGF binding,[2],> 10^-6 M
VVSHFNKCPDSHT [Peptide I],Relative Inhibitory Activity,[1],> 1500
same,effectiveness as inhibitor of precipitation of 125I-peptide III,[1],ineffective
CC(=O)N[C@H]1CSSC[C@@H](C(N)=O)NC(=O)[C@H](CCCNC(=N)N)NC(=O)[C@H](C(C)C)NC(=O)CNC(=O)[C@H](C(C)C)NC(=O)[C@H](Cc2ccc(O)cc2)NC(=O)CNC(=O)[C@H](CO)NC(=O)[C@H](Cc2c[nH]cn2)NC1=O [Peptide 2] (Ac-CHSGYVGVRC-NH2; disulfide 1-10),binding potency relative to EGF or TGF-α,[2],approximately 0.02%
VGVRCEHADLLA [Peptide IV],Relative Inhibitory Activity,[1],3.5
same,effectiveness as inhibitor of precipitation of 125I-peptide III,[1],only slightly less effective
EGF: mouse submaxillary gland epidermal growth factor [reference compound],blocking of 125I-labeled rat TGF binding to A431 cells,[6],blocked
same,inhibition of reaction of anti-KLH-peptide 1 antibodies with BSA-TGF peptide,[4],did not cause significant inhibition
same,highest concentration without competition in RIA,[1],greater than 1 μM
same,Relative Inhibitory Activity,[1],> 1500
CHSGYVGVRCEHADLLA (cysteine pairing not given here) [Peptide III],Relative Inhibitory Activity,[1],1
same,IC50,[1]; read-out: concentration producing half-maximal inhibition of precipitation of 125I-peptide III,0.0007 µM

# Reference: patent US5240912A, “Transforming growth factor (TGF) peptides” (priority 1991, dated 1993)
